Data on one compound can be found in patent EP4309647A1, “G[…] FRACTIONS OF PINE NUT SKIN, METHODS AND USES THEREOF” (Universidade de Aveiro, priority 2022, dated 2024).

The experiment is described as follows: Effect on cholesterol solubility / bioaccessibility in an in vitro intestinal model (GDCA bile salt micelles, 13C NMR quantification of [4-13C]cholesterol). The following applies: cholesterol 3.5 mM, amount equivalent to 3.5 mM β-sitosterol. As to the method: In an embodiment, to evaluate the effect of the lipophilic extracts on cholesterol solubility, an in vitro intestinal model with glycodehoxycholic acid (GDCA) at 37 °C and pH 7.4 was used.
In an embodiment, solutions of cholesterol labeled with carbon-13 at carbon 4 ([4-^13C]cholesterol) with or without pine nut skin extracts was prepared in azeotropic mixtures of chloroform/methanol (87:13, v/v). Films are formed by solvent evaporation under a stream of nitrogen and heating. To remove possible traces of organic solvents, the films with cholesterol were placed on a desiccator under vacuum during, for example, 30 minutes at room temperature. […]
In an embodiment, to evaluate this effect, the bioaccessibility of labelled cholesterol([4-^13C]cholesterol) was measured by ^13C NMR, using an in vitro intestinal model composed of glycodeoxycholic acid bile salt micelles and lipophilic extracts from pine nut skin and from the two separated fractions, added individually.
In an embodiment, the quantification of cholesterol by ^13C NMR was possible due to the utilization of an isotopomer of cholesterol fully enriched in ^13C in carbon 4, which has a typical peak at 44 ppm, distinguishable from GDCA resonances. […] This methodology allows to quantify [4-^13C] cholesterol which is emulsified on the bile salt micelles, that is, the available quantity which is likely to be absorbed (bioaccessible). […]

For the compound `CC[C@H](CC[C@@H](C)[C@H]1CC[C@H]2[C@@H]3CC=C4C[C@@H](O)CC[C@]4(C)[C@H]3CC[C@]12C)C(C)C` [β-Sitosterol], the “cholesterol emulsified (solubilized, bioaccessible)” value (GDCA 50 mM) worked out at 1.6 mM. In addition, the “reduction of cholesterol solubility / bioaccessability relatively to the control” value (control = GDCA and [4-13C]cholesterol) was 49%.
